Test system: Bdnf, Arc, Egr-1, Egr-2, Egr-3 mRNA in mouse PFC, HIP, mPFC
Assay: In vivo gene expression
Details: PFC and HIP, 30 min after 10 mg/kg i.p.

CN(C)CCc1c[nH]c2ccccc12 [DMT, dimethyltryptamine]
Expression of Egr-2 mRNA: significantly elevated expression

— publication PMC12916285 (Molecular Psychiatry, 2025)
